Experimental data published in patent US8580965B2, “Substituted sulfonamide compounds” (Gruenenthal GmbH, priority 2006, dated 2013).
Where a name gives a salt, the structure may show the parent alone.

Columns and labels:
[1] = molecular target: T1, human B1R receptor (bradykinin 1 receptor) (Homo sapiens, UniProt P46663); assay: FLIPR Ca2+ assay (Fluo-4) on CHO K1 cells stably transfected with the human B1R gene; % activation and % inhibition at 10 μM; assay type: cell-based; conditions: CHO K1 hB1R cells, Ca2+ inflow after 0.5 nM Lys-Des-Arg9-bradykinin; for inhibition at 10 µM: CHO-K1, test substance 10 μM, read-out: B1R antagonism, human [10 μM] % inhibition
T1 construct: host or cells: CHO K1 cells (hB1R cells)
T1 sequence (P46663 1-353): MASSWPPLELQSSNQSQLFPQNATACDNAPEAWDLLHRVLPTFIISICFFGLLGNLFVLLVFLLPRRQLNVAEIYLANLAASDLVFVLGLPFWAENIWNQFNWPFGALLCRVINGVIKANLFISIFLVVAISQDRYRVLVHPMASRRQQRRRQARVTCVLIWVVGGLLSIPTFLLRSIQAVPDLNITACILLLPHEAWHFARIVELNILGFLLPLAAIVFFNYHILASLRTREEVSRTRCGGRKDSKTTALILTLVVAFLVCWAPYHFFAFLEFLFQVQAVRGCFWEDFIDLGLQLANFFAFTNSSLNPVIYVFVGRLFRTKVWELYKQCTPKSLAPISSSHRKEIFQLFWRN
Outline: (§1)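 CHO K1 cells stably expressing human or rat B1R, Fluo-4 loaded, read by FLIPR (peak fluorescence). Compound at 10 µM first gives % activation versus agonist; after 10 min, agonist (human: 0.5 nM Lys-Des-Arg9-bradykinin; rat: 100 nM Des-Arg9-bradykinin) gives % inhibition relative to maximal inhibition.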

[2] = molecular target: T2, B1R receptor of the rat (bradykinin 1 receptor) (Rattus norvegicus, UniProt P97583); assay: FLIPR Ca2+ assay (Fluo-4) on CHO K1 cells stably transfected with the B1R gene of the rat; % activation and % inhibition at 10 μM; assay type: cell-based; conditions: CHO K1 rB1R cells, Ca2+ inflow after 100 nM Des-Arg9-bradykinin; for inhibition at 10 µM: CHO-K1, test substance 10 μM, read-out: B1R antagonism, rat [10 μM] % inhibition
T2 construct: host or cells: CHO K1 cells (rB1R cells)
T2 sequence (P97583 1-337): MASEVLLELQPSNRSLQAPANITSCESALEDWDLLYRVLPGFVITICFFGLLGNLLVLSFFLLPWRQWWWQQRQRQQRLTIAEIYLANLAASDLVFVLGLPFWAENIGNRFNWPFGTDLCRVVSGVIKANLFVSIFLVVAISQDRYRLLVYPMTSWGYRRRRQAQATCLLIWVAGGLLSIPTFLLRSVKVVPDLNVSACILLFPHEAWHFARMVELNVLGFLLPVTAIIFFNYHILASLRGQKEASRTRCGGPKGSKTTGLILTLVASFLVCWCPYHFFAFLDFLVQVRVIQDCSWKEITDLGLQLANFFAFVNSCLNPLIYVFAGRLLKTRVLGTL
Outline: as §1

| inhibition at 10 µM [1] | inhibition at 10 µM [2] | B1R antagonism, human [10 μM] % inhibition ([1]; test substance 10 μM) | B1R antagonism, rat [10 μM] % inhibition ([2]; test substance 10 μM) | Compound |
| --- | --- | --- | --- | --- |
| 75.5% | 71.9% | – | – | O=C(COC1CCN(S(=O)(=O)c2c(Cl)cc(Cl)cc2Cl)C1)N1CCC(O)(c2ccc(Cl)cc2)CC1 (stereo not shown) [Example 107, 1-(4-(4-chlorophenyl)-4-hydroxypiperidin-1-yl)-2-(1-(2,4,6-trichlorophenylsulfonyl)pyrrolidin-3-yloxy)ethanone] |
| 54.8% | 54.5% | – | – | O=C(COC1CCN(S(=O)(=O)c2c(Cl)cc(Cl)cc2Cl)C1)N1CCC(O)(c2ccccc2)CC1 (stereo not shown) [Example 108, 1-(4-hydroxy-4-phenylpiperidin-1-yl)-2-(1-(2,4,6-trichlorophenylsulfonyl)pyrrolidin-3-yloxy)ethanone] |
| 103% | 82.5% | – | – | O=C(COC1CCN(S(=O)(=O)c2c(Cl)cc(Cl)cc2Cl)C1)N1CCC(O)(Cc2ccccc2)CC1 (stereo not shown) [Example 109, 1-(4-benzyl-4-hydroxy-piperidin-1-yl)-2-[1-(2,4,6-trichloro-phenylsulfonyl)-pyrrolidin-3-yloxy]-ethanone] |
| 97.8% | 85.9% | – | – | Cc1cc(S(=O)(=O)N2CCCCC2CCC(=O)N2CCC(O)(c3cccnc3)CC2)c(C)cc1Cl (stereo not shown) [Example 111, 3-(1-(4-chloro-2,5-dimethylphenylsulfonyl)piperidin-2-yl)-1-(4-hydroxy-4-(pyridin-3-yl)piperidin-1-yl)propan-1-one hydrochloride] |
| 106% | 101% | – | – | COc1cc(C)c(S(=O)(=O)N2CCCCC2CCC(=O)N2CCC(O)(c3cccnc3)CC2)c(C)c1 (stereo not shown) [Example 112, 1-(4-hydroxy-4-(pyridin-3-yl)piperidin-1-yl)-3-(1-(4-methoxy-2,6-dimethylphenylsulfonyl)piperidin-2-yl)propan-1-one] |
| 94.8% | 51.1% | – | – | Cc1cc(S(=O)(=O)N(C)CCCC(=O)N2CCC(O)(c3cccnc3)CC2)c(C)cc1Cl [Example 113, 4-chloro-N-(4-(4-hydroxy-4-(pyridin-3-yl)piperidin-1-yl)-4-oxobutyl)-N,2,5-trimethylphenylsulfonamide hydrochloride] |
| 55.2% | 44.3% | – | – | CN(CCCC(=O)N1CCC(O)(c2cccnc2)CC1)S(=O)(=O)c1ccc2ccccc2c1 [Example 115, N-(4-(4-hydroxy-4-(pyridin-3-yl)piperidin-1-yl)-4-oxobutyl)-N-methylnaphthalene-2-sulfonamide] |
| 84.8% | 24.2% | – | – | O=C(CCC1CCCCN1S(=O)(=O)c1ccc2ccccc2c1)N1CCC(O)(c2cccnc2)CC1 (stereo not shown) [Example 117, 1-(4-hydroxy-4-(pyridin-3-yl)piperidin-1-yl)-3-(1-(naphthalen-2-ylsulfonyl)piperidin-2-yl)propan-1-one] |
| 101% | 97.9% | – | – | O=C(CCC1CCCCN1S(=O)(=O)c1ccc(Cl)cc1Cl)N1CCC(O)(c2cccnc2)CC1 (stereo not shown) [Example 118, 3-(1-(2,4-dichlorophenylsulfonyl)piperidin-2-yl)-1-(4-hydroxy-4-(pyridin-3-yl)piperidin-1-yl)propan-1-one] |
| 82.6% | 22.4% | – | – | Cc1cc(S(=O)(=O)N2CCCCC2CCC(=O)N2CCC(O)(c3ccccn3)CC2)c(C)cc1Cl (stereo not shown) [Example 119, 3-(1-(4-chloro-2,5-dimethylphenylsulfonyl)piperidin-2-yl)-1-(4-hydroxy-4-(pyridin-2-yl)piperidin-1-yl)propan-1-one] |
| 58.4% | 45.9% | – | – | Cc1cc(S(=O)(=O)N2CCCCC2CCC(=O)N2CCC(O)(c3cccc(F)c3)CC2)c(C)cc1Cl (stereo not shown) [Example 120, 3-(1-(4-chloro-2,5-dimethylphenylsulfonyl)piperidin-2-yl)-1-(4-(3-fluorophenyl)-4-hydroxypiperidin-1-yl)propan-1-one] |
| 100% | 57.1% | – | – | COc1cc(C)c(S(=O)(=O)N(C)CCCCC(=O)N2CCC(O)(c3cccnc3)CC2)c(C)c1 [Example 121, N-(5-(4-hydroxy-4-(pyridin-3-yl)piperidin-1-yl)-5-oxopentyl)-4-methoxy-N,2,6-trimethylphenylsulfonamide] |
| – | – | 98.39% | 97.87% | Cc1cc(S(=O)(=O)N2CCCCC2CCC(=O)N2CCC(O)(c3cccnc3)CC2)c(C)cc1Cl (stereo not shown) [Example 122, 3-(1-(4-chloro-2,5-dimethylphenylsulfonyl)piperidin-2-yl)-1-(4-hydroxy-4-(pyridin-3-yl)piperidin-1-yl)propan-1-one] |
| 47.9% | 54.7% | – | – | O=C(CCC1CCCCN1S(=O)(=O)c1cccc(C(F)(F)F)c1)N1CCC(O)(c2ccc(Br)cc2)CC1 (stereo not shown) [Example 123, 1-(4-(4-bromophenyl)-4-hydroxypiperidin-1-yl)-3-(1-(3-(trifluoromethyl)phenylsulfonyl)piperidin-2-yl)propan-1-one] |
| 41% | 61.6% | – | – | CN(c1ccccc1CCC(=O)N1CCC(O)(c2ccc(Cl)c(C(F)(F)F)c2)CC1)S(=O)(=O)c1ccc(Cl)c(Cl)c1 [Example 124, 3,4-dichloro-N-(2-(3-(4-(4-chloro-3-(trifluoromethyl)phenyl)-4-hydroxypiperidin-1-yl)-3-oxopropyl)phenyl)-N-methylphenylsulfonamide] |
| 93.2% | 91.4% | – | – | CN(c1ccccc1CCC(=O)N1CCC(O)(c2cccnc2)CC1)S(=O)(=O)c1ccc(Cl)c(Cl)c1 [Example 125, 3,4-dichloro-N-(2-(3-(4-hydroxy-4-(pyridin-3-yl)piperidin-1-yl)-3-oxopropyl)phenyl)-N-methylphenylsulfonamide] |
| 101% | 98.8% | – | – | COc1cc(C)c(S(=O)(=O)N2Cc3ccccc3C[C@H]2COCC(=O)N2CCC(O)(c3cccnc3)CC2)c(C)c1 [Example 128, (S)-1-(4-hydroxy-4-(pyridin-3-yl)piperidin-1-yl)-2-((2-(4-methoxy-2,6-dimethylphenylsulfonyl)-1,2,3,4-tetrahydroisoquinolin-3-yl)methoxy)ethanone] |
| 103% | 97.3% | – | – | O=C(COC[C@@H]1Cc2ccccc2CN1S(=O)(=O)c1ccc(Cl)cc1Cl)N1CCC(O)(c2cccnc2)CC1 [Example 129, (S)-2-((2-(2,4-dichlorophenylsulfonyl)-1,2,3,4-tetrahydroisoquinolin-3-yl)methoxy)-1-(4-hydroxy-4-(pyridin-3-yl)piperidin-1-yl)ethanone] |
| 103% | 98.6% | – | – | COc1cc(C)c(S(=O)(=O)N(CCOCC(=O)N2CCC(O)(c3cccnc3)CC2)Cc2ccccc2)c(C)c1 [Example 130, N-benzyl-N-(2-(2-(4-hydroxy-4-(pyridin-3-yl)piperidin-1-yl)-2-oxoethoxy)ethyl)-4-methoxy-2,6-dimethylphenylsulfonamide] |
| 102% | 100% | – | – | O=C(COCC1Cc2ccccc2CN1S(=O)(=O)c1ccc(Cl)cc1Cl)N1CCC(O)(c2cccnc2)CC1 (stereo not shown) [Example 131, 2-((2-(2,4-dichlorophenylsulfonyl)-1,2,3,4-tetrahydroisoquinolin-3-yl)methoxy)-1-(4-hydroxy-4-(pyridin-3-yl)piperidin-1-yl)ethanone hydrochloride] |
| 101% | 99.1% | – | – | COc1cc(C)c(S(=O)(=O)N(C)CCOCC(=O)N2CCC(O)(c3cccc(C(F)(F)F)c3)CC2)c(C)c1 [Example 132, N-(2-(2-(4-hydroxy-4-(3-(trifluoromethyl)phenyl)piperidin-1-yl)-2-oxoethoxy)ethyl)-4-methoxy-N,2,6-trimethylphenylsulfonamide] |
| 84.1% | 96.1% | – | – | COc1cc(C)c(S(=O)(=O)N(C)CCOCCC(=O)N2CCC(O)(c3cccnc3)CC2)c(C)c1 [Example 133, N-(2-(3-(4-hydroxy-4-(pyridin-3-yl)piperidin-1-yl)-3-oxopropoxy)ethyl)-4-methoxy-N,2,6-trimethylphenylsulfonamide] |

| Compound | inhibition at 10 µM [1] | inhibition at 10 µM [2] | B1R antagonism, human [10 μM] % inhibition ([1]; test substance 10 μM) | B1R antagonism, rat [10 μM] % inhibition ([2]; test substance 10 μM) |
| --- | --- | --- | --- | --- |
| COc1cc(C)c(S(=O)(=O)N2CCCCC2COCC(=O)N2CCC(O)(c3cccnc3)CC2)c(C)c1 (stereo not shown) [Example 127, 1-(4-hydroxy-4-(pyridin-3-yl)piperidin-1-yl)-2-((1-(4-methoxy-2,6-dimethylphenylsulfonyl)piperidin-2-yl)methoxy)ethanone] | 104% | 101% | – | – |
